Test results: publication PMC12227546 (Nature Communications, 2025)
Changes are numbered by the printed parent chain. Numbers in names are those of the source.

T1: taurine transporter (TauT) (Homo sapiens, UniProt P31641)
T1 sequence (P31641 1-620): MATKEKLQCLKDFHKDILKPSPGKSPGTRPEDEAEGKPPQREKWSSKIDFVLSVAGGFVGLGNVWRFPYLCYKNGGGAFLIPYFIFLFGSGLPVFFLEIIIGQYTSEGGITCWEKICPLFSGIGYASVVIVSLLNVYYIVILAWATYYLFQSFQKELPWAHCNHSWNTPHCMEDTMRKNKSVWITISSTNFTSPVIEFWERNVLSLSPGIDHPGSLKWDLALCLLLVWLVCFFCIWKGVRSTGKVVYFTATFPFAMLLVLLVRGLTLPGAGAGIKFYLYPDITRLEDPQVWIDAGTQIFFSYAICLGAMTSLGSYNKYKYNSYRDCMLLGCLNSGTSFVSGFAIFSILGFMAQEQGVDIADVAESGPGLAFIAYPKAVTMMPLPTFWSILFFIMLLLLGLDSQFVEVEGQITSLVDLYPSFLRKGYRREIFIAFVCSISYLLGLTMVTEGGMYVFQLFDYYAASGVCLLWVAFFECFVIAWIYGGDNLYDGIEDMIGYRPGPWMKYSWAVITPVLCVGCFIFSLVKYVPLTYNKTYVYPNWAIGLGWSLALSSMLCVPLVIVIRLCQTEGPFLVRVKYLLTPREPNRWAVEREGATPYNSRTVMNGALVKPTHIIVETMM

B1: taurine transporter (TauT) (Homo sapiens; F58A) (protein)
chain: T1 sequence (P31641 1-620) with F58A

How the values were obtained:
[1] = biological target: T1, taurine transporter (TauT); test: cryo-EM structure; assay type: cell-based
[2] = substrate: NCCS(=O)(=O)O; test: cells, lysate or membranes; assay type: cell-based, Homo sapiens; settings: Na+ and Cl- central pocket

Molecule	IC50 [1] [mM]	Km [2] [µM]
NCCCC(=O)O [GABA]	1.3	–
B1	–	166.2
